Results from a melting point compilation (Tetko et al.; mined from patent text by program, amines drawn as free bases though some values may be those of a salt).

First: O=c1c(-c2ccccc2)ccc2n1CCSc1ccsc1-2
Second: COC(=O)CCc1nc(-c2ccc(O)cc2)c(-c2ccccc2)o1
The melting point of the first is higher: 139 to 141 °C for the first, 115 to 116 °C for the second.

Compared with `Clc1ccc(-c2cc(C3CCN(CC4CCCCC4)CC3)n[nH]2)cc1`, `O=C(c1ccc(F)cc1)C1CCN(CCCC2CCc3onc(-c4ccc(Cl)cc4)c3C2O)CC1` (stereo not drawn) is lower in melting point: 186 to 187 °C for the first, 152 to 155 °C for the second.

First: CCCCCCCCCCCC#Cc1ccccc1C=C(P(=O)(O)O)P(=O)(O)O
Second: CCCCCCCCCCCCCCOC(=O)n1cc(-c2ccccc2)nc1O
The melting point of the first is lower: 141 to 142 °C for the first, 166 to 171 °C for the second.

First: Nc1ccc(-c2cc(=O)c(C(=O)O)cn2-c2cccnc2)cc1
Second: NS(=O)(=O)c1ccc(-n2nc(C(=O)O)cc2-c2ccc(Cl)cc2)cc1
The melting point of the first is higher: 207 to 208 °C for the first, 126 to 128 °C for the second.

Compared with `O=S(=O)(c1nc2c([nH]1)-c1ccc(F)cc1Oc1ccccc1-2)C(F)(F)C(F)F`, `O=[N+]([O-])c1cc(Br)ccc1-c1ccc(F)cc1F` is lower in melting point: 171 to 173 °C for the first, 52 to 53 °C for the second.

First: O=C1CN(CCN2CC(=O)N(CN3CCCC3)C(=O)C2)CC(=O)N1CN1CCCC1
Second: CN1CCc2c(C3=CC(=O)CCC3)c(F)cc3c(=O)c(C(=O)O)cn1c23
The melting point of the first is lower: 150 to 155 °C for the first, over 300 °C for the second.

First: CC(=O)CCc1c(C)c(OC(C)=O)c(C)c(C)c1OC(C)=O
Second: CC(=O)Oc1cc2occ(C=O)c(=O)c2cc1OC(C)=O
The melting point of the first is lower: 85 to 87.5 °C for the first, 133 to 135 °C for the second.

Compared with `C=Cn1c(Cl)cc(Cl)c(O)c1=S`, `O=C(CCCl)c1ccc(O)c(Cl)c1Cl` is lower in melting point: 114 °C for the first, 109 to 111 °C for the second.

Compared with `Cc1nc(-c2ccc(C#N)cc2)sc1C(=O)N(CC(=O)O)[C@H](C)[C@](O)(Cn1cncn1)c1ccc(F)cc1F`, `C[C@@H]([C@H]1CO1)[C@](O)(Cn1cncn1)c1ccc(F)cc1F` (relative stereo) is higher in melting point: 153 to 159 °C for the first, 160 to 180 °C for the second.

First: CCOC1c2ccccc2-c2nccnc21 (stereo not drawn)
Second: CCOC(=O)c1ccc2nc(N[C@@H]3CCc4ccccc43)ccc2c1
The melting point of the first is higher: over 300 °C for the first, 137 °C for the second.

First: CS(=O)c1ccc(C2=C(c3ccccc3)C(=O)C(C)(C)O2)cc1Cl (stereo not drawn)
Second: CC1(C)OC(c2ccc(S(C)(=O)=O)c(F)c2)=C(c2cccc(Cl)c2)C1=S
The melting point of the first is higher: 120 to 121 °C for the first, 105 to 106 °C for the second.

First: CCCCCCC1(C)Nc2ccccc2-c2c([N+](=O)[O-])cnn21 (stereo not drawn)
Second: Nc1ccc(S(=O)c2ccccc2)cc1[N+](=O)[O-] (stereo not drawn)
The melting point of the first is lower: 86 to 88 °C for the first, 146 to 147 °C for the second.

First: Nc1cc(Oc2ccc(CCO)cc2)c(N)c2c1C(=O)c1ccccc1C2=O
Second: CCOc1nc2c(C)sc(C(=O)OC)c2n1Cc1ccc(-c2ccccc2C#N)cc1
The melting point of the first is higher: 224 to 227 °C for the first, 155 to 156 °C for the second.

First: CSc1noc(-c2ccc(OCCOc3ccc([N+](=O)[O-])cc3)cc2)c1C#N
Second: CCOC(=O)c1cnoc1-c1ccc([N+](=O)[O-])cc1
The melting point of the first is higher: 170 to 171 °C for the first, 73 to 76 °C for the second.

First: CC1c2ccccc2-c2sc(Br)cc2N1S(=O)(=O)c1ccc(O)cc1 (stereo not drawn)
Second: Cc1ccc(S(=O)(=O)OCC2Cc3cc(Cl)cc(-c4ccsc4)c3O2)cc1 (stereo not drawn)
The melting point of the first is higher: 209 to 211 °C for the first, 115 to 117 °C for the second.

Compared with `CCOP(=O)(CC1(O)CC=Cc2ccccc21)OCC` (stereo not drawn), `COC=C(C(=O)OC)c1ccccc1CBr` is lower in melting point: 120 to 121 °C for the first, 88 to 90 °C for the second.

First: O=C(NCCSc1ccccn1)Nc1cc(N2CC(c3ccccc3)OC2=O)ccn1 (stereo not drawn)
Second: CCCc1c(C(=O)NCc2ccc3cc(O)ccc3c2)cnn1-c1ccccc1
The melting point of the first is higher: 209 to 211 °C for the first, 189 to 190 °C for the second.

First: CCCCc1nc2c(N)nc3ccccc3c2n1CC1(O)CCCCC1
Second: CCCOc1ccccc1CCCOc1ccc2c(c1)C=C(C(=O)O)CCS2(=O)=O
The melting point of the first is higher: 218 to 220 °C for the first, 153 to 157 °C for the second.

Compared with `O=C(O)COc1cc(F)ccc1C(=S)NCc1ccc(Br)cc1F`, `O=C(O)COc1ccc(C(=O)c2cccc3ccccc23)c(Cl)c1Cl` is higher in melting point: 154 to 157 °C for the first, 173 to 175 °C for the second.

Compared with `C[C@H](NC(=O)C(CSC(=O)c1ccccc1)SC(=O)c1ccccc1)C(=O)N1CCC[C@H]1C(=O)O` (stereo partly drawn), `CC(=O)NC(Cc1ccccc1)C(O)C(Cc1ccccc1)NC(C)=O` (stereo not drawn) is lower in melting point: 185 to 186 °C for the first, 125 to 126 °C for the second.

First: Cn1nc(C(F)F)cc1O
Second: CC(C)n1cc(C#N)c(-c2ccc([N+](=O)[O-])o2)n1
The melting point of the first is lower: 133 °C for the first, 181 to 182 °C for the second.

Compared with `O=C(O)CN1CCOCC1`, `CN1CCN(C(=O)[C@H](CC(N)=O)NC(=O)OC(C)(C)C)CC1` is lower in melting point: 169 to 170 °C for the first, 68 to 70 °C for the second.

First: O=C1N(Cc2nnc(-c3ccccc3)o2)c2ccccc2C12COc1cc3c(cc12)OCO3 (stereo not drawn)
Second: CCc1oc2ccccc2c1C(=O)c1cc(-c2ccccc2)c(O)c(-c2ccccc2)c1
The melting point of the first is higher: 151 to 153 °C for the first, 142 to 143 °C for the second.

First: CCOC(=O)c1c(Cn2cncn2)nc2sc3ncccc3c2c1-c1ccc(OC)c(OC)c1
Second: CCOc1ccc(C2=NN(C(=O)c3cccc(N)c3)CCC2)cc1OCC
The melting point of the first is higher: 180 to 182 °C for the first, 162 to 163 °C for the second.

Compared with `CN(C(=O)c1cnc(N2CCNC2=O)nc1N)c1cccc(C(F)(F)F)c1`, `O=C1CCC(C(=O)Nc2ccc(-n3nc(C(F)(F)F)cc3C(F)(F)F)cc2)O1` (stereo not drawn) is lower in melting point: 249 to 250 °C for the first, 172 to 173 °C for the second.

First: CC(C)NCC(O)COc1ccc2nc3[nH]c(=O)[nH]c3cc2c1 (stereo not drawn)
Second: CCOC(=O)NN=Cc1nc(-c2ccccc2)[nH]c1C
The melting point of the first is higher: 262 to 264 °C for the first, 209 to 211 °C for the second.

Compared with `CCCCCCCCCCCCCCOc1cc(OCCCCCCc2cccc(O)c2O)cc(C(=O)O)c1`, `CCCCOCCCNC(=O)c1cnc(C(=O)NCC(=O)OCc2ccccc2)c(OC)c1` is higher in melting point: 92 to 94 °C for the first, 97 to 99 °C for the second.

First: O=S(=O)(Cc1ccc(Br)cc1)c1nc(-c2ccncc2)ns1
Second: CC[C@H]1COC(=O)N1c1nc(-c2ccc(Br)cc2)cs1
The melting point of the first is higher: 173 °C for the first, 138 to 140 °C for the second.

Compared with `CC(=NC(C#N)=C(N)C#N)c1ccccc1O`, `CN(C)CCc1c(CC(N)=O)c2ccccc2n1C` is lower in melting point: 181 to 183 °C for the first, 131 to 134 °C for the second.

Compared with `O=C1CCC2=C(CCc3c(Cl)cccc32)N1`, `Cn1cncc1C(c1ccc(Cl)cc1)c1ccc2c(c1)C(c1cccc(Cl)c1)SCCC(=O)N2` (stereo not drawn) is lower in melting point: 252 to 253 °C for the first, 199 °C for the second.

`C=C1CCCC2CCC3C(CCC4(C)C3C(C=O)C35OCCOC43OCCO5)C12C` (stereo not drawn) and `CC12CCC3C(CCC4CC(CC(=O)O)CCC43C)C1CCC2CC=O` (stereo not drawn) cannot be ordered by melting point: 192 °C for the first, 189 to 192 °C for the second.

Compared with `CCN(C)C(=O)NC(=O)Nc1ccccc1`, `CC1(c2ccccc2)CCC(=O)C=C1C(=O)O` (racemic) is higher in melting point: 157 to 159 °C for the first, 206 °C for the second.

First: CCOC(=O)CC[C@H](NC1CCC(CCC2CNc3nc(NC(=O)C(C)(C)C)nc(O)c3C2)CC1)C(=O)OCC (stereo partly drawn)
Second: CC(=O)OCC(=O)C1(O)CCC2C3CCC4=CC(=O)C=CC4(C)C3C(O[Si](C)(C)C)CC21C (stereo not drawn)
The melting point of the first is lower: 160 to 170 °C for the first, 180 to 184 °C for the second.

First: O=C(c1ccc(F)cc1)N1CCC[C@H](c2noc([C@@H](O)c3ccccc3)n2)C1
Second: COc1cccc2c1C[C@H]1C[C@@H](CN3CCC(NC(=O)C(c4ccccc4)c4ccccc4)CC3)CN(C)[C@@H]1C2
The melting point of the first is lower: 168 to 172 °C for the first, 219 to 222 °C for the second.

First: CCSCC(=C1NCCCS1)[N+](=O)[O-]
Second: CCOC(=O)NNc1cc(C)c(-c2cccc([N+](=O)[O-])c2)nn1
The melting point of the first is lower: 69.5 to 71 °C for the first, 186 to 187 °C for the second.

Compared with `CCC(=O)N1C(=O)C(=O)c2cc(F)ccc21`, `O=C(O)c1cc2[nH]c3c(O)cccc3c(=O)n2n1` is higher in melting point: 150 to 152 °C for the first, 326 to 330 °C for the second.

First: CC(C)c1cccc(C(C)C)c1NC(=O)Cc1c(-c2ccccc2)c2cc(Cl)ccc2n(C)c1=O
Second: CC(C)(C)c1cc(CCc2ccccc2NC(=O)NCC(c2ccccc2)c2ccccc2)cc(C(C)(C)C)c1O
The melting point of the first is higher: 237 to 238 °C for the first, 179 °C for the second.

Going from `COC1=C(C(=O)c2ccc(C)cc2)C(c2ccc(C(C)C)cc2)N(c2ncc(S(=O)(=O)c3ccc([N+](=O)[O-])cc3)s2)C1=O` (stereo not drawn) to `COc1ccc(N=C(C#Cc2ccccc2OC)N2CCN(Cc3ccc(C)cc3)CC2)cc1`, the melting point falls from 237 °C to 83 °C.

First: N#CC=Cc1ccc2c(c1)-c1c3c(c4c([nH]c5ccccc54)c1C2)C(=O)NC3
Second: CC(=O)OC[C@H]1CCn2c(c(C3=C(c4cn(C)c5ccccc45)C(=O)NC3=O)c3ccccc32)C1
The melting point of the first is higher: over 330 °C for the first, 238 to 241 °C for the second.

First: COC(=O)CN(c1cc2cc(OC)c(=O)oc2cc1OCc1ccccc1)S(N)(=O)=O
Second: Cc1cc(C(=O)Oc2ccccc2)c(O)c2ccccc12
The melting point of the first is higher: 178 to 179 °C for the first, 76 to 77 °C for the second.

Compared with `C#Cc1c(NC)c(F)cc2c(=O)c(C(=O)O)cn(-c3cc(N)c(F)cc3F)c12`, `NCc1ccc(N2CC(C(=O)O)OC2=O)cc1` (stereo not drawn) is higher in melting point: 208 to 209 °C for the first, 211 to 212 °C for the second.

Compared with `Cc1ccc2cc(NS(=O)(=O)c3cccc(Cl)c3C)ccc2n1`, `Cc1cc(Nc2nc(-c3ccccc3)nc3ncccc23)[nH]n1` is higher in melting point: 178 °C for the first, 234 °C for the second.

`COc1ccccc1SC1CC(=O)N1` (stereo not drawn) and `N#CCCn1nc(-c2ccccc2)ccc1=O` cannot be ordered by melting point: 103 to 105 °C for the first, 103 to 104 °C for the second.

`CCc1cc2c(Sc3nnc(C)s3)ncnc2s1` and `CCC(COC)Nc1nc(C)nc2c1nnn2-c1ccc(C(C)C)cc1Br` (stereo not drawn) cannot be ordered by melting point: 132 to 135 °C for the first, 132 to 134 °C for the second.

Compared with `O=C(OC(c1ccccc1)c1ccccc1)[C@H](O)CCc1ccccc1`, `CC(C)(C)c1cc(CCc2ccccc2NC(=O)N2CCc3ccccc3C2)cc(C(C)(C)C)c1O` is higher in melting point: 82 to 84 °C for the first, 148 to 150 °C for the second.

First: COC(=O)c1cccc2oc(CBr)nc12
Second: OC(Cn1cncn1)(OCCOc1ccc(Cl)cc1Cl)c1ccc(Cl)cc1Cl (stereo not drawn)
The melting point of the first is higher: 110 to 113 °C for the first, 88 to 90 °C for the second.

First: Clc1cnc(Br)c(Br)c1
Second: CCOc1ccc(C=Cc2ccc(OC(F)F)cc2)cc1
The melting point of the first is lower: 39.5 to 43 °C for the first, 177 °C for the second.

First: Cc1cc(-c2nc(-c3ccc(OC(F)(F)F)cc3)no2)nn1Cc1ccnc(N2CCN(C3CC3)CC2)c1
Second: COCCN1CCN(CCc2ccc(Nc3ncc4c(n3)-c3ccccc3[C@H](c3ccc(F)cc3)C4)cc2)CC1
The melting point of the first is lower: 140 °C for the first, 195 to 198 °C for the second.

Compared with `CCCCC1CCC(c2ccc(Cc3ccc(N)cc3)cc2)(c2ccc(Cc3ccc(N)cc3)cc2)CC1`, `CCOC(=O)c1ccc(-c2ccc(OCCCN)c(-c3ccc4c(c3)C(C)(C)CCC4(C)C)c2)cc1` is higher in melting point: 58.5 to 60.1 °C for the first, 155 °C for the second.
